In article PMC6116579, “Catalytic and Structural Characterization of a Browning-Related Protein in Oriental Sweet Melon (Cucumis Melo var. Makuwa Makino)” (Frontiers in Chemistry, 2018) one finds Km data, which are given here for 1 molecule.

For the test, the target named is T1, BRP (browning-related protein with PPO activity; matched to endochitinase MCHT-2) (Cucumis melo, UniProt Q9AVA8).
T1 construct: native, partially purified from fruit (ammonium sulfate, DEAE Sepharose, Sephacryl S200); about 18 kDa SDS-PAGE, 37 kDa native PAGE, homodimer
T1 sequence (Q9AVA8 21-311): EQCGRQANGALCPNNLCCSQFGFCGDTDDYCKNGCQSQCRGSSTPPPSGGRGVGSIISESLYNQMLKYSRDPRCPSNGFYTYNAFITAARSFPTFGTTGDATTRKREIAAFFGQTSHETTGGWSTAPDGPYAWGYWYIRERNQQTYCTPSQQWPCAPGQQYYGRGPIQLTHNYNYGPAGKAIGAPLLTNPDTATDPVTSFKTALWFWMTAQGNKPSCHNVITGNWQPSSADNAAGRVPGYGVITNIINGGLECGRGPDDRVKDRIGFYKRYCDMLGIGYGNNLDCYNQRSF
As to the kind of experiment: absorbance at […] nm, Lineweaver-Burk. Format: biochemical. Particulars: oxidation by air oxygen; 0.05 M Tris-HCl pH 7.0, 25 °C.

Molecules are shown by their SMILES.

By Km is commonly meant the substrate concentration at which the rate is half of its maximum. Turning to `Oc1cccc(O)c1O` [Pyrogallol], the Km was found to be 42.8 mM.
